Laboratory results from ChEMBL document CHEMBL1240475, “Design and synthesis of novel isoxazole-based HDAC inhibitors” (Eur J Med Chem, 2010).

Columns and labels:
[1] = target: T1, Histone deacetylase (Homo sapiens) (UniProt Q13547+O15379+Q9UBN7+Q92769+Q9UQL6+Q8WUI4+Q9BY41+Q96DB2+P56524+Q9UKV0+Q969S8); conditions: HeLa, at 1 µM
Description: Inhibition of HDAC in human HeLa cells at 1 uM after 15 mins

[2] = target: T1, Histone deacetylase (Homo sapiens); conditions: HeLa, at 0.1 µM
Description: Inhibition of HDAC in human HeLa cells at 0.1 uM after 15 mins

[3] = target: T1, Histone deacetylase (Homo sapiens); conditions: HeLa, at 10 µM
Description: Inhibition of HDAC in human HeLa cells at 10 uM after 15 mins

Histone deacetylase 1 = Histone deacetylase 1 (Homo sapiens, UniProt Q13547); test: Inhibition of HDAC1
Histone deacetylase 1, sequence (Q13547 whole entry): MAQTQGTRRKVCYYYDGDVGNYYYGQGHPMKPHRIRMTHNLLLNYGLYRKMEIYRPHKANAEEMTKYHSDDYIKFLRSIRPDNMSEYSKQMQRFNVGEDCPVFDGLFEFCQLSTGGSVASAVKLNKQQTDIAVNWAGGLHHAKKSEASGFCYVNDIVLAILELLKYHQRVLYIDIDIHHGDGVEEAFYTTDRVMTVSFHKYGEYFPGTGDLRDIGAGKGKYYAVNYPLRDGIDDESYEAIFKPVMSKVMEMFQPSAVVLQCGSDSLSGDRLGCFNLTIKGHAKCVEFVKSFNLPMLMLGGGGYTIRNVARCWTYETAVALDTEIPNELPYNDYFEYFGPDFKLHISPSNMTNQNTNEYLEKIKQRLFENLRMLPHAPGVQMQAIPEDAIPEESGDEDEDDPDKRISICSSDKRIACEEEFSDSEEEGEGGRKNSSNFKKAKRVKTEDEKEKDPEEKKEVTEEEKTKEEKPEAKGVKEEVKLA

Histone deacetylase 2 = Histone deacetylase 2 (Homo sapiens, UniProt Q92769)
Histone deacetylase 2, sequence (Q92769 whole entry): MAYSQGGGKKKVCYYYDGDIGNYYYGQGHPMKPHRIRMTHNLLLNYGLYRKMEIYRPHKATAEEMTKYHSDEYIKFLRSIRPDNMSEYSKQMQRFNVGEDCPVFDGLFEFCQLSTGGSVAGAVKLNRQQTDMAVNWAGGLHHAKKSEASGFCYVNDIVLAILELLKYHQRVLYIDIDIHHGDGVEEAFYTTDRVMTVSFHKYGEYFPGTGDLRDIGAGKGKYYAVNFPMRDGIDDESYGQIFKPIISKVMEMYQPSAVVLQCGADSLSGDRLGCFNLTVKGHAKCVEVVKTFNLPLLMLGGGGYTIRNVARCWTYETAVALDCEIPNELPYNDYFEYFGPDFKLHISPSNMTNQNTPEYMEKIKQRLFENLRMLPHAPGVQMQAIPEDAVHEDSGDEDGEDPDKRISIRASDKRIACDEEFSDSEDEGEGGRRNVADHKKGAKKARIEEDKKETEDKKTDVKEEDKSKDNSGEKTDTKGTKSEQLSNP

Histone deacetylase 3 = Histone deacetylase 3 (Homo sapiens, UniProt O15379); test: Inhibition of HDAC3
Histone deacetylase 3, sequence (O15379 whole entry): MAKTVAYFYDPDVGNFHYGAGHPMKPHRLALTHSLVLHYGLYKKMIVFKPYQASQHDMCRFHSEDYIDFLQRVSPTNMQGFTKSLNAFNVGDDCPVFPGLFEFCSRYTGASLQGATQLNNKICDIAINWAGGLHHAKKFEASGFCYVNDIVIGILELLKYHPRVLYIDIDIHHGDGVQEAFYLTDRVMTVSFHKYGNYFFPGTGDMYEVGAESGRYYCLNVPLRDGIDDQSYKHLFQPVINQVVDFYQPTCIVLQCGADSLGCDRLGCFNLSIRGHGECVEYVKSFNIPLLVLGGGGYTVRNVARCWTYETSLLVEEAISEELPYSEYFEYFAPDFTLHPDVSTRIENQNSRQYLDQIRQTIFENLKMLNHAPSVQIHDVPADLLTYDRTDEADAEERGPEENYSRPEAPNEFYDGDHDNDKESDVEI

[4] = target: T2, Protein deacetylase HDAC6 (Homo sapiens, UniProt Q9UBN7); test: Inhibition of HDAC6
T2 sequence (Q9UBN7 whole entry): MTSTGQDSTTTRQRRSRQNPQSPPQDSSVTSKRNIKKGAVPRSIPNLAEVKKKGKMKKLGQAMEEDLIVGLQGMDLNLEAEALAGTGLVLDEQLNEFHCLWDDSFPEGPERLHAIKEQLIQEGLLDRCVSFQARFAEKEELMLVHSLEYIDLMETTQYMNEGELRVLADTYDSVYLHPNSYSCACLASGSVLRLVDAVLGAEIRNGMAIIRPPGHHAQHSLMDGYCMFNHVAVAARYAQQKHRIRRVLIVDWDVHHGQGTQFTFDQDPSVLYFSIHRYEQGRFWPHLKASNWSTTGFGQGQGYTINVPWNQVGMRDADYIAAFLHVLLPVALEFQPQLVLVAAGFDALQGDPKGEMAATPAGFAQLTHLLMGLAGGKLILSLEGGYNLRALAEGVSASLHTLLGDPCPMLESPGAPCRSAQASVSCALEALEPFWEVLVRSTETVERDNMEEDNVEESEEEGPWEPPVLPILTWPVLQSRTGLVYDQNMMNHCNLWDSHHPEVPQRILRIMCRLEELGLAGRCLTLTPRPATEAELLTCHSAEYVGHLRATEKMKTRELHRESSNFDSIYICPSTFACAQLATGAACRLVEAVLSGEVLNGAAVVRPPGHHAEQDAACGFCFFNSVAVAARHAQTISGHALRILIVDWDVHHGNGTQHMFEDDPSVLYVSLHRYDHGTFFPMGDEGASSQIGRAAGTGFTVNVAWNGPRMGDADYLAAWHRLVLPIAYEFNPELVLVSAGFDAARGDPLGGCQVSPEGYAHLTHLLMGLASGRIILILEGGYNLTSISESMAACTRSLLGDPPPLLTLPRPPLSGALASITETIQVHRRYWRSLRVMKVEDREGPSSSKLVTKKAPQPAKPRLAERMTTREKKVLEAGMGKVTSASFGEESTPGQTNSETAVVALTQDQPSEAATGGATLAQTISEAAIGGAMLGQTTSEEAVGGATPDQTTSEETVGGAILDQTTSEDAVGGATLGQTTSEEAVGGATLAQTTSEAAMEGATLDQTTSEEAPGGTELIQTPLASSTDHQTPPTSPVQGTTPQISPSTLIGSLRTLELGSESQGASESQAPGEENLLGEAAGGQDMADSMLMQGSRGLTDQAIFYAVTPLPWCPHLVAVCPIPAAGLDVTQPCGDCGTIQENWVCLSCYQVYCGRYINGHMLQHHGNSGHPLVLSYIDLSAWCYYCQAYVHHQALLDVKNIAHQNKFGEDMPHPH

[5] = target: T3, Polyamine deacetylase HDAC10 (Homo sapiens, UniProt Q969S8); test: Inhibition of HDAC10
T3 sequence (Q969S8 whole entry): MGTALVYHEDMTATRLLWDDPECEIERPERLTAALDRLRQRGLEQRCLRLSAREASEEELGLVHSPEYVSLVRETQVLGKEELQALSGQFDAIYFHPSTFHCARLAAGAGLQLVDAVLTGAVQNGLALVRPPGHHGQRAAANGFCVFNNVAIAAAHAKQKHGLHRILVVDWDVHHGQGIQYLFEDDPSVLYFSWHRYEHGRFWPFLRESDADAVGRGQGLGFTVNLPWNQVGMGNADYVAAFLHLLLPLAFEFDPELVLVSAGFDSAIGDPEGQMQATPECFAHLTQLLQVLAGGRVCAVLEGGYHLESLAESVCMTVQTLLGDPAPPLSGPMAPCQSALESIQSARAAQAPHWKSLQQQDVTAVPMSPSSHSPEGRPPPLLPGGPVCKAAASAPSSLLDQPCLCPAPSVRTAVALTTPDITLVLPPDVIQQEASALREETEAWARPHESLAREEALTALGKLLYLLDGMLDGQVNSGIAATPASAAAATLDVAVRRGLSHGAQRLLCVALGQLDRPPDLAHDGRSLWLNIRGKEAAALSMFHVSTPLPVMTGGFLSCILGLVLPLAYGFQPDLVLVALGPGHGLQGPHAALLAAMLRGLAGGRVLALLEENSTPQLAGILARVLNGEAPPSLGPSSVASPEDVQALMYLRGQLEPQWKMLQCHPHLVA

Row | SMILES | inhibition [1] | inhibition [2] | inhibition [3] | IC50 (Histone deacetylase 1) | IC50 (Histone deacetylase 2) | IC50 (Histone deacetylase 3) | IC50 [4] | IC50 [5]
1 | Nc1ccccc1-c1cc(CCCCC(=O)Nc2ccccc2)on1 | 0% | 0% | 0.5% |  |  |  |  | 
2 | O=C(CCCCc1cc(-c2ccccc2O)no1)Nc1ccccc1 | 0% | 0% | 0% |  |  |  |  | 
3 | O=C(CCCC1CC(C(=O)NO)=NO1)Nc1ccccc1 (centres undefined) | 9.75% | 3.5% | 56% |  |  |  |  | 
4 | O=C(CCCCc1cc(Cc2nn[nH]n2)no1)Nc1ccccc1 | 0% | 0% | 5% |  |  |  |  | 
5 | O=C(CCCCC1CC(C(=O)NO)=NO1)Nc1ccccc1 (centres undefined) | 16.8% | 4% | 77% | 17.7 µM | 36.2 µM | 28.1 µM | 0.76 µM | 23.9 µM

The remaining lines, values ahead:

Row | inhibition [1] | inhibition [2] | inhibition [3] | IC50 (Histone deacetylase 1) | IC50 (Histone deacetylase 2) | IC50 (Histone deacetylase 3) | IC50 [4] | IC50 [5] | SMILES
6 | 0% | 0% | 0.5% |  |  |  |  |  | O=C(CCCCc1cc(C(=O)O)no1)Nc1ccccc1
7 | 26% | 1.5% | 78.5% | 4.95 µM | 18.9 µM | 26.7 µM | 0.43 µM | 9.05 µM | O=C(CCCCc1cc(C(=O)NO)no1)Nc1ccccc1
8 | 0% | 0% | 8% |  |  |  |  |  | NNC(=O)c1cc(CCCCC(=O)Nc2ccccc2)on1
9 | 0% | 4.5% | 0% |  |  |  |  |  | Nc1cc(CCCCC(=O)Nc2ccccc2)on1
10 | 0.75% | 0% | 7.5% |  |  |  |  |  | O=C(CCCCc1cc(/C=N/O)no1)Nc1ccccc1
11 | 23.8% | 4.5% | 78.5% |  |  |  |  |  | O=C(CCCc1cc(C(=O)NO)no1)Nc1ccccc1
12 | 22% | 4.5% | 80% |  |  |  |  |  | O=C(CCCCc1cc(CS)no1)Nc1ccccc1
13 | 0% | 0% | 0% |  |  |  |  |  | O=C(CCCCc1cc(CO)no1)Nc1ccccc1
